The term pIC50 denotes the IC50 on a negative log10 scale, so that one unit is a factor of ten.

Experimental findings from US11691962B2 (eXIthera Pharmaceuticals, Inc., priority 2018, dated 2023) are described below.

pIC50: −log10 of the molar value.

Sequence of Factor XIa (P03951 388-625): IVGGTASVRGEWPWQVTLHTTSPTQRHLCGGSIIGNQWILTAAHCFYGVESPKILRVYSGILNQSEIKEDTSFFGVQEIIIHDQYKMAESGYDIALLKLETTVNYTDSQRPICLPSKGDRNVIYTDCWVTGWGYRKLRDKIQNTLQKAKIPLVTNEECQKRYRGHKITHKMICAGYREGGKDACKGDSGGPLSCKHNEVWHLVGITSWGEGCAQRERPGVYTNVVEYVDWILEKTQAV
Sequence of Factor XIa (P03951 19-387 partner): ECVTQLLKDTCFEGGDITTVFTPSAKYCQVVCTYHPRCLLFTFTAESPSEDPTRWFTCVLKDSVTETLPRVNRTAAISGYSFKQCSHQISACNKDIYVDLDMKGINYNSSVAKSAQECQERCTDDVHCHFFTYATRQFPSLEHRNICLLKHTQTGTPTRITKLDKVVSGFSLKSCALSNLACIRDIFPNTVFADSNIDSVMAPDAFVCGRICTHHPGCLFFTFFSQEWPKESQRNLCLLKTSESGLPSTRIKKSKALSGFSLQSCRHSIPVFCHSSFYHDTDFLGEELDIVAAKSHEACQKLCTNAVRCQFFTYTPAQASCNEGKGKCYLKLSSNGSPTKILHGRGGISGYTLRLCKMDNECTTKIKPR

This assay deals with Factor XIa (Homo sapiens (Human), UniProt P03951). As to the kind of experiment: Factor XIa enzyme inhibition assay (dose response, fluorogenic AMC substrate). It counts as biochemical. Conditions: read-out: hFXIa IC50. The protocol:
• Assay buffer: 20 mM Hepes, pH 7.4; 150 mM NaCl; 0.02% Tween 20 • Compounds: 10 mM stocks in DMSO • Substrate: 20 mM Glp-Pro-Arg-AMC, 25 mg/2.3 mL H2O (store at +4° C.) [Factor XIa, thrombin, and trypsin] • 20 mM Pro-Phe-Arg-AMC (Bachem I-1295), 25 mg/2.2 mL H2O • or Boc-Leu-Gly-Arg-AMC (Bachem I-1105), 25 mg/2.07 mL H2O • (store at +4° C.) [Factor Xa] • Enzyme: Factor XIa; 0.25 μM in 50% glycerol (20 μg/mL) • Trypsin; 0.2 μM in 50% glycerol (4.8 μg/mL) • Thrombin; 0.2 μM in 50% glycerol (7.34 μg/mL) • Factor Xa; 0.2 μM in 50% glycerol (9.2 μg/mL) • These stocks are aliquoted (˜100 μL/aliquot) and stored at −20° C. Methods: • 1. Dilute the substrate to 100 μM in assay buffer (30 μL/6 mL). The enzyme is diluted to 0.5 nM just prior to use (12 μL/6 mL for Factor XIa; 15 μL/6 mL for all of the rest.) • 2. Pipette 50 μL of substrate into each well of the 96 well (12×8) microtiter plate. (Column 1 is used as the 100% activity control and receives no compound, and Column 12 is the blank and receives no enzyme.) Add an additional 46 μL to column 2. • 3. Pipette 4 μL of each compound into the appropriate well in column 2 of the plate (unknowns assayed in triplicate, standard assayed in duplicate). The final compound concentration will be […] of the stock. • 4. Serially two-fold dilute the compound by mixing the sample in column 2, removing 50 μL to the next well (column 3), mix and remove to column 4, etc. until column 11. After mixing column 11, remove 50 μL and discard. • 5. Pipette 50 μL of buffer into column 12. Initiate the reaction by adding 50 μL of enzyme solution to each well of columns 1-11 as rapidly as possible. • 6. Read the plate in a spectrophotometer (SpectraMax) at 30° C., wherein each well is measured every 60 s for 30 min. For Factor Xa assays, each well is measured every 1 min for a total of 60 min. • 7. For Factor XIa assays, the compounds are assayed, in duplicate, at 3 different starting concentrations, 20, 2, and 0.2 μM; 1:10, 1:100, and 1:1000 dilution of 10 mM stock or at 2, 0.2, and 0.02 μM; 1:100, 1:1000, and 1:10,000 dilution of 10 mM stock. Data for each concentration are combined for graphing and data fitting. • 8. Data can be used both for estimation of IC50 and for estimation of Kon.
Potential inhibitors of Factor XIa were evaluated using the following assay.
PyroGlu-Pro-Arg-7-methylaminocourin (AMC), available from CPC Scientific, Inc., is based on the substrate pyro-Glu-Pro-Arg-pNA (S-2366), available from Diapharma Group, Inc. (Columbus, Ohio), wherein the p-nitroanaline group is replaced with 7-methylaminocoumarin (AMC).
The final concentration of the substrate in the assay was 50 μM, and the final concentration of the enzyme was 0.25 nM. Inhibitors were tested by serial dilution over an appropriate range to yield a dose response curve for determination of the inhibitors' IC50 value. The assay mixture was read every minute for 30 minutes in order to generate progress curves. The plates were read in a Spectramax m5 Multimode Plate Reader (Molecular Devices LLC, Sunnyvale, Calif.). Dose response curves were fit to Equation 1 below in which A is the maximum inhibition, B is the minimum inhibition, C is the IC50, and D is the Hill coefficient. Y=[(A−B)/(1+(X/C)^D)]+B (Equation 1)
For `CC[C@@H](NC(=O)N1C(=O)[C@H](Cc2ccnc(N)c2)[C@H]1C(=O)N(C)c1nccn1C)c1ccc(F)c(C)c1` [Compound 1-117, (2S,3R)-3-((2-aminopyridin-4-yl)methyl)-N2-(1-methyl-1H-imidazol-2-yl)-N1-((R)-1-(3-methyl-4-fluorophenyl)propyl)-N2-methyl-4-oxoazetidine-1,2-dicarboxamide], the pIC50 was greater than 8.00.

Regarding `CC[C@@H](NC(=O)N1C(=O)[C@H](Cc2ccnc(N)c2)[C@H]1C(=O)N(C)c1nccn1C)c1ccc(Cl)cc1C` [Compound 1-118, (2S,3R)-3-((2-aminopyridin-4-yl)methyl)-N2-(1-methyl-1H-imidazol-2-yl)-N1-((R)-1-(4-chloro-2-methylphenyl)propyl)-N2-methyl-4-oxoazetidine-1,2-dicarboxamide], the pIC50 is greater than 8.00.

Regarding `CC[C@@H](NC(=O)N1C(=O)[C@H](Cc2ccnc(N)c2)[C@H]1C(=O)N(C)c1nccn1C)c1ccc(C)cc1F` [Compound 1-119, (2S,3R)-3-((2-aminopyridin-4-yl)methyl)-N2-(1-methyl-1H-imidazol-2-yl)-N1-((R)-1-(2-fluoro-4-methylphenyl)propyl)-N2-methyl-4-oxoazetidine-1,2-dicarboxamide], the pIC50 was greater than 8.00.

Regarding `CC[C@@H](NC(=O)N1C(=O)[C@H](Cc2ccnc(N)c2)[C@H]1C(=O)N(C)c1nccn1C)C1CCCCO1` (stereo partly drawn) [Compound 1-121, (2S,3R)-3-((2-aminopyridin-4-yl)methyl)-N2-(1-methyl-1H-imidazol-2-yl)-N1-((R)-1-(oxan-2-yl)propyl)-N2-methyl-4-oxoazetidine-1,2-dicarboxamide], the pIC50 is 7.00 to 8.00.

With `CC[C@@H](NC(=O)N1C(=O)[C@H](Cc2ccnc(N)c2)[C@H]1C(=O)N(C)c1nccn1C)C1CCOCC1` [Compound 1-122, (2S,3R)-3-((2-aminopyridin-4-yl)methyl)-N2-(1-methyl-1H-imidazol-2-yl)-N1-((R)-1-(oxan-4-yl)propyl)-N2-methyl-4-oxoazetidine-1,2-dicarboxamide], the pIC50 is 7.00 to 8.00.

With `CC[C@@H](NC(=O)N1C(=O)[C@H](Cc2ccnc(N)c2)[C@H]1C(=O)N(C)c1ccn(C)n1)c1ccc(C)cc1` [Compound 1-124, (2S,3R)-3-((2-aminopyridin-4-yl)methyl)-N2-(1-methyl-1H-pyrazol-3-yl)-N1-((R)-1-(4-methylphenyl)propyl)-N2-methyl-4-oxoazetidine-1,2-dicarboxamide], the negative-log IC50 (pIC50) was greater than 8.00.

With `CC[C@@H](NC(=O)N1C(=O)[C@H](Cc2ccnc(N)c2)[C@H]1C(=O)N(C)c1nccn1C)C1CCCOC1` (stereo partly drawn) [Compound 1-126, (2S,3R)-3-((2-aminopyridin-4-yl)methyl)-N2-(1-methyl-1H-imidazol-2-yl)-N1-((R)-1-(oxan-3-yl)propyl)-N2-methyl-4-oxoazetidine-1,2-dicarboxamide], the pIC50 was 7.00 to 8.00.

With `CC[C@@H](NC(=O)N1C(=O)[C@H](Cc2ccnc(N)c2)[C@H]1C(=O)N(C)c1ccn(C)n1)c1ccccc1C` [Compound 1-130, (2S,3R)-3-((2-aminopyridin-4-yl)methyl)-N2-(1-methyl-1H-pyrazol-3-yl)-N1-((R)-1-(2-methylphenyl)propyl)-N2-methyl-4-oxoazetidine-1,2-dicarboxamide], the pIC50 was greater than 8.00.

As for `CC[C@@H](NC(=O)N1C(=O)[C@H](Cc2ccnc(N)c2)[C@H]1C(=O)N(C)C1=NC(=O)CN1C)c1ccccc1` [Compound 1-131, (2S,3R)-3-((2-aminopyridin-4-yl)methyl)-N2-(4-oxo-1-methyl-4,5-dihydro-1H-imidazol-2-yl)-N1-((R)-1-phenylpropyl)-N2-methyl-4-oxoazetidine-1,2-dicarboxamide], the pIC50 is 7.00 to 8.00.

`CC[C@@H](NC(=O)N1C(=O)[C@H](Cc2ccnc(N)c2)[C@H]1C(=O)N(C)c1ccn(C)n1)c1cc(C)ccc1C` [Compound 1-132, (2S,3R)-3-((2-aminopyridin-4-yl)methyl)-N2-(1-methyl-1H-pyrazol-3-yl)-N1-((R)-1-(2,5-dimethylphenyl)propyl)-N2-methyl-4-oxoazetidine-1,2-dicarboxamide]: the pIC50 was greater than 8.00.

Turning to `CC[C@@H](NC(=O)N1C(=O)[C@H](Cc2ccnc(N)c2)[C@H]1C(=O)N(C)c1ccn(C)n1)c1ccccc1F` [Compound 1-133, (2S,3R)-3-((2-aminopyridin-4-yl)methyl)-N2-(1-methyl-1H-pyrazol-3-yl)-N1-((R)-1-(2-fluorophenyl)propyl)-N2-methyl-4-oxoazetidine-1,2-dicarboxamide], the pIC50 was 7.00 to 8.00.

In the case of `CC[C@@H](NC(=O)N1C(=O)[C@H](Cc2ccnc(N)c2)[C@H]1C(=O)N(C)c1ccn(C)n1)c1cc(F)ccc1C` [Compound 1-135, (2S,3R)-3-((2-aminopyridin-4-yl)methyl)-N2-(1-methyl-1H-pyrazol-3-yl)-N1-((R)-1-(5-fluoro-2-methylphenyl)propyl)-N2-methyl-4-oxoazetidine-1,2-dicarboxamide], the negative-log IC50 (pIC50) was greater than 8.00.

For the molecule `CC[C@@H](NC(=O)N1C(=O)[C@H](Cc2ccnc(N)c2)[C@H]1C(=O)N(C)c1ccn(C)n1)c1cccc(Cl)c1C` [Compound 1-138, (2S,3R)-3-((2-aminopyridin-4-yl)methyl)-N2-(1-methyl-1H-pyrazol-3-yl)-N1-((R)-1-(3-chloro-2-methylphenyl)propyl)-N2-methyl-4-oxoazetidine-1,2-dicarboxamide], the pIC50 is greater than 8.00.

Take `CC[C@@H](NC(=O)N1C(=O)[C@H](Cc2cc(C)nc(N)c2)[C@H]1C(=O)N(C)C1=NC(=O)CN1C)c1ccccc1` [Compound 1-139, (2S,3R)-3-((2-amino-6-methylpyridin-4-yl)methyl)-N2-(4-oxo-1-methyl-4,5-dihydro-1H-imidazol-2-yl)-N1-((R)-1-phenylpropyl)-N2-methyl-4-oxoazetidine-1,2-dicarboxamide]: the pIC50 was 7.00 to 8.00.

On to `CC[C@@H](NC(=O)N1C(=O)[C@H](Cc2ccnc(N)c2)[C@H]1C(=O)N(C)c1ccn(C)n1)c1cccc(C)c1C` [Compound 1-140, (2S,3R)-3-((2-aminopyridin-4-yl)methyl)-N2-(1-methyl-1H-pyrazol-3-yl)-N1-((R)-1-(2,3-dimethylphenyl)propyl)-N2-methyl-4-oxoazetidine-1,2-dicarboxamide], for which the pIC50 was greater than 8.00.

Turning to `CC[C@@H](NC(=O)N1C(=O)[C@H](Cc2ccnc(N)c2)[C@H]1C(=O)N(C)c1ccn(C)n1)c1cc(Cl)ccc1C` [Compound 1-141, (2S,3R)-3-((2-aminopyridin-4-yl)methyl)-N2-(1-methyl-1H-pyrazol-3-yl)-N1-((R)-1-(5-chloro-2-methylphenyl)propyl)-N2-methyl-4-oxoazetidine-1,2-dicarboxamide], the pIC50 was greater than 8.00.

For `CC[C@@H](NC(=O)N1C(=O)[C@H](Cc2cc(C)nc(N)c2)[C@H]1C(=O)N(C)c1ccn(C)n1)c1ccc(C)cc1` [Compound 1-142, (2S,3R)-3-((2-amino-6-methylpyridin-4-yl)methyl)-N2-(1-methyl-1H-pyrazol-3-yl)-N1-((R)-1-(4-methylphenyl)propyl)-N2-methyl-4-oxoazetidine-1,2-dicarboxamide], the pIC50 is greater than 8.00.

For `CC[C@@H](NC(=O)N1C(=O)[C@H](Cc2cc(C)nc(N)c2)[C@H]1C(=O)N(C)c1ccn(C)n1)c1ccc(C)c(C)c1` [Compound 1-145, (2S,3R)-3-((2-amino-6-methylpyridin-4-yl)methyl)-N2-(1-methyl-1H-pyrazol-3-yl)-N1-((R)-1-(3,4-dimethylphenyl)propyl)-N2-methyl-4-oxoazetidine-1,2-dicarboxamide], the pIC50 is greater than 8.00.
